Test system: Crude diglycosidase
Assay: Examination of temperature in the conversion into isoflavone aglycons by diglycosidase using soybean materials
Assay type: biochemical, Penicillium multicolor IAM7153
Set-up: Decomposition efficiency of glycitin family in roasted soy flour / Decomposition efficiency of daidzin family in roasted soy flour / Decomposition efficiency of genistin family in soymilk / Decomposition efficiency of daidzin family in soymilk / Decomposition efficiency of glycitin family in defatted soybean / Decomposition efficiency of daidzin family in defatted soybean: concentration or dose not given beside the values
How it was run: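 Soybean materials (50 mg) suspended in 20 mM acetate buffer pH 4.0 reacted with crude diglycosidase diluted to 1.88 AU/mL at 80, 65, 55, 45, 37 or 30° C. Reactions stopped with ethanol at 0, 1, 3 and 6 h; isoflavone glycosides and aglycons in supernatant detected by HPLC.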

[1] = 30 °C, heat treatment of enzyme: no, 0 h
[2] = 30 °C, heat treatment of enzyme: no, 1 h
[3] = 30 °C, heat treatment of enzyme: no, 3 h
[4] = 30 °C, heat treatment of enzyme: no, 6 h
[5] = 30 °C, heat treatment of enzyme: yes, 6 h
[6] = 45 °C, heat treatment of enzyme: no, 0 h
[7] = 45 °C, heat treatment of enzyme: no, 1 h
[8] = 45 °C, heat treatment of enzyme: no, 3 h
[9] = 45 °C, heat treatment of enzyme: no, 6 h
[10] = 45 °C, heat treatment of enzyme: yes, 6 h
[11] = 55 °C, heat treatment of enzyme: no, 0 h
[12] = 55 °C, heat treatment of enzyme: no, 1 h
[13] = 55 °C, heat treatment of enzyme: no, 3 h
[14] = 55 °C, heat treatment of enzyme: no, 6 h
[15] = 55 °C, heat treatment of enzyme: yes, 6 h
[16] = 65 °C, heat treatment of enzyme: no, 0 h
[17] = 65 °C, heat treatment of enzyme: no, 1 h
[18] = 65 °C, heat treatment of enzyme: no, 3 h
[19] = 65 °C, heat treatment of enzyme: no, 6 h
[20] = 65 °C, heat treatment of enzyme: yes, 6 h
[21] = 80 °C, heat treatment of enzyme: no, 0 h
[22] = 80 °C, heat treatment of enzyme: no, 1 h
[23] = 80 °C, heat treatment of enzyme: no, 3 h
[24] = 80 °C, heat treatment of enzyme: no, 6 h
[25] = 80 °C, heat treatment of enzyme: yes, 6 h

Q: What does the source list for `COc1cc2c(=O)c(-c3ccc(O)cc3)coc2cc1O[C@@H]1O[C@H](COC(C)=O)[C@@H](O)[C@H](O)[C@H]1O` [acetylglycitin, 6″-O-acetylglycitin]?
A: Decomposition efficiency of glycitin family in defatted soybean (30° C., heat treatment of enzyme no, reaction time 0 h): not detected; Decomposition efficiency of glycitin family in defatted soybean (30° C., heat treatment of enzyme no, reaction time 1 h): not detected; Decomposition efficiency of glycitin family in defatted soybean (30° C., heat treatment of enzyme no, reaction time 3 h): not detected; Decomposition efficiency of glycitin family in defatted soybean (30° C., heat treatment of enzyme no, reaction time 6 h): not detected; Decomposition efficiency of glycitin family in defatted soybean (30° C., heat treatment of enzyme yes, reaction time 6 h): not detected; Decomposition efficiency of glycitin family in concentrated soybean protein [1]: 36.0%; Decomposition efficiency of glycitin family in roasted soy flour [1]: 38.7%; Decomposition efficiency of glycitin family in soymilk [1]: not detected; Decomposition efficiency of glycitin family in concentrated soybean protein [2]: 35.0%; Decomposition efficiency of glycitin family in roasted soy flour [2]: 33.8%; Decomposition efficiency of glycitin family in soymilk [2]: not detected; Decomposition efficiency of glycitin family in concentrated soybean protein [3]: 33.4%; Decomposition efficiency of glycitin family in roasted soy flour [3]: 33.2%; Decomposition efficiency of glycitin family in soymilk [3]: not detected; Decomposition efficiency of glycitin family in concentrated soybean protein [4]: 30.8%; Decomposition efficiency of glycitin family in roasted soy flour [4]: 19.1%; Decomposition efficiency of glycitin family in soymilk [4]: not detected; Decomposition efficiency of glycitin family in concentrated soybean protein [5]: 35.4%; Decomposition efficiency of glycitin family in roasted soy flour [5]: 37.5%; Decomposition efficiency of glycitin family in soymilk [5]: not detected; Decomposition efficiency of glycitin family in defatted soybean (45° C., heat treatment of enzyme no, reaction time 0 h): not detected; Decomposition efficiency of glycitin family in defatted soybean (45° C., heat treatment of enzyme no, reaction time 1 h): not detected; Decomposition efficiency of glycitin family in defatted soybean (45° C., heat treatment of enzyme no, reaction time 3 h): not detected; Decomposition efficiency of glycitin family in defatted soybean (45° C., heat treatment of enzyme no, reaction time 6 h): not detected; Decomposition efficiency of glycitin family in defatted soybean (45° C., heat treatment of enzyme yes, reaction time 6 h): not detected; Decomposition efficiency of glycitin family in concentrated soybean protein [6]: 35.9%; Decomposition efficiency of glycitin family in roasted soy flour [6]: 38.3%; Decomposition efficiency of glycitin family in soymilk [6]: not detected; Decomposition efficiency of glycitin family in concentrated soybean protein [7]: 34.1%; Decomposition efficiency of glycitin family in roasted soy flour [7]: 27.4%; Decomposition efficiency of glycitin family in soymilk [7]: not detected; Decomposition efficiency of glycitin family in concentrated soybean protein [8]: 31.0%; Decomposition efficiency of glycitin family in roasted soy flour [8]: 20.3%; Decomposition efficiency of glycitin family in soymilk [8]: not detected; Decomposition efficiency of glycitin family in concentrated soybean protein [9]: 27.1%; Decomposition efficiency of glycitin family in roasted soy flour [9]: 9.1%; Decomposition efficiency of glycitin family in soymilk [9]: not detected; Decomposition efficiency of glycitin family in concentrated soybean protein [10]: 35.0%; Decomposition efficiency of glycitin family in roasted soy flour [10]: 36.8%; Decomposition efficiency of glycitin family in soymilk [10]: not detected; Decomposition efficiency of glycitin family in defatted soybean (55° C., heat treatment of enzyme no, reaction time 0 h): not detected; Decomposition efficiency of glycitin family in defatted soybean (55° C., heat treatment of enzyme no, reaction time 1 h): not detected; Decomposition efficiency of glycitin family in defatted soybean (55° C., heat treatment of enzyme no, reaction time 3 h): not detected; Decomposition efficiency of glycitin family in defatted soybean (55° C., heat treatment of enzyme no, reaction time 6 h): not detected; Decomposition efficiency of glycitin family in defatted soybean (55° C., heat treatment of enzyme yes, reaction time 6 h): not detected; Decomposition efficiency of glycitin family in concentrated soybean protein [11]: 36.0%; Decomposition efficiency of glycitin family in roasted soy flour [11]: 39.1%; Decomposition efficiency of glycitin family in soymilk [11]: not detected; Decomposition efficiency of glycitin family in concentrated soybean protein [12]: 33.9%; Decomposition efficiency of glycitin family in roasted soy flour [12]: 30.1%; Decomposition efficiency of glycitin family in soymilk [12]: not detected; Decomposition efficiency of glycitin family in concentrated soybean protein [13]: 29.8%; Decomposition efficiency of glycitin family in roasted soy flour [13]: 12.1%; Decomposition efficiency of glycitin family in soymilk [13]: not detected; Decomposition efficiency of glycitin family in concentrated soybean protein [14]: 26.8%; Decomposition efficiency of glycitin family in roasted soy flour [14]: 6.0%; Decomposition efficiency of glycitin family in soymilk [14]: not detected; Decomposition efficiency of glycitin family in concentrated soybean protein [15]: 35.3%; Decomposition efficiency of glycitin family in roasted soy flour [15]: 37.3%; Decomposition efficiency of glycitin family in soymilk [15]: not detected; Decomposition efficiency of glycitin family in defatted soybean (65° C., heat treatment of enzyme no, reaction time 0 h): not detected; Decomposition efficiency of glycitin family in defatted soybean (65° C., heat treatment of enzyme no, reaction time 1 h): not detected; Decomposition efficiency of glycitin family in defatted soybean (65° C., heat treatment of enzyme no, reaction time 3 h): not detected; Decomposition efficiency of glycitin family in defatted soybean (65° C., heat treatment of enzyme no, reaction time 6 h): not detected; Decomposition efficiency of glycitin family in defatted soybean (65° C., heat treatment of enzyme yes, reaction time 6 h): not detected; Decomposition efficiency of glycitin family in concentrated soybean protein [16]: 36.0%; Decomposition efficiency of glycitin family in roasted soy flour [16]: 38.7%; Decomposition efficiency of glycitin family in soymilk [16]: not detected; Decomposition efficiency of glycitin family in concentrated soybean protein [17]: 35.7%; Decomposition efficiency of glycitin family in roasted soy flour [17]: 34.5%; Decomposition efficiency of glycitin family in soymilk [17]: not detected; Decomposition efficiency of glycitin family in concentrated soybean protein [18]: 35.5%; Decomposition efficiency of glycitin family in roasted soy flour [18]: 31.0%; Decomposition efficiency of glycitin family in soymilk [18]: not detected; Decomposition efficiency of glycitin family in concentrated soybean protein [19]: 35.8%; Decomposition efficiency of glycitin family in roasted soy flour [19]: 29.0%; Decomposition efficiency of glycitin family in soymilk [19]: not detected; Decomposition efficiency of glycitin family in concentrated soybean protein [20]: 35.7%; Decomposition efficiency of glycitin family in roasted soy flour [20]: 39.3%; Decomposition efficiency of glycitin family in soymilk [20]: not detected; Decomposition efficiency of glycitin family in defatted soybean (80° C., heat treatment of enzyme no, reaction time 0 h): not detected; Decomposition efficiency of glycitin family in defatted soybean (80° C., heat treatment of enzyme no, reaction time 1 h): not detected; Decomposition efficiency of glycitin family in defatted soybean (80° C., heat treatment of enzyme no, reaction time 3 h): not detected; Decomposition efficiency of glycitin family in defatted soybean (80° C., heat treatment of enzyme no, reaction time 6 h): not detected; Decomposition efficiency of glycitin family in defatted soybean (80° C., heat treatment of enzyme yes, reaction time 6 h): not detected; Decomposition efficiency of glycitin family in concentrated soybean protein [21]: 35.9%; Decomposition efficiency of glycitin family in roasted soy flour [21]: 38.3%; Decomposition efficiency of glycitin family in soymilk [21]: not detected; Decomposition efficiency of glycitin family in concentrated soybean protein [22]: 36.0%; Decomposition efficiency of glycitin family in roasted soy flour [22]: 40.1%; Decomposition efficiency of glycitin family in soymilk [22]: not detected; Decomposition efficiency of glycitin family in concentrated soybean protein [23]: 35.7%; Decomposition efficiency of glycitin family in roasted soy flour [23]: 38.4%; Decomposition efficiency of glycitin family in soymilk [23]: not detected; Decomposition efficiency of glycitin family in concentrated soybean protein [24]: 35.2%; Decomposition efficiency of glycitin family in roasted soy flour [24]: 35.7%; Decomposition efficiency of glycitin family in soymilk [24]: not detected; Decomposition efficiency of glycitin family in concentrated soybean protein [25]: 34.8%; Decomposition efficiency of glycitin family in roasted soy flour [25]: 39.4%; Decomposition efficiency of glycitin family in soymilk [25]: not detected
